Legend:
[1] = target: Recombinant human Bcl-2 protein (Homo sapiens (Human), UniProt P10415); assay: Bcl-2 TR-FRET Assay; type: binding; settings: Bcl-2 wild type, TR-FRET; read-out: Biochemical assay (IC50, nM) Bcl-2 WT
Summary of the method: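 Compounds were pre-incubated with 0.05 nM recombinant Bcl-2 for 0.5 h at room temperature in potassium phosphate buffer, pH 7.5. FITC-Bak peptide (0.5 nM) and Tb-cryptate antibody were then added for 1 h. Percent inhibition from TR-FRET signals gave IC50 values.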

[2] = target: recombinant human Bcl-2-G101V protein (Homo sapiens (Human), UniProt P10415, G101V); assay: Bcl-2-G101V TR-FRET Assay; type: binding; settings: Bcl-2 G101V mutant, TR-FRET; read-out: Biochemical assay (IC50, nM) Bcl-2 G101V
Summary of the method: (§1)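 Measures how compounds block Bcl-2-G101V engaging its ligand, by TR-FRET with 337 nm excitation and a 490/520 nm emission ratio; dose-response data give IC50 via a four-parameter logistic model.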

[3] = system: recombinant human Bcl-2-G101V protein; assay: Bcl-2-G101V TR-FRET Assay; type: binding; settings: ratio of biochemical IC50 Bcl-2 G101V / Bcl-2 WT
Summary of the method: as §1

[4] = system: RS4;11 (BCL-2 dependent acute lymphoblastic leukemia cell line); assay: RS4;11 Cell Proliferation Assay; type: cell-based; settings: Homo sapiens, RS4-11, RS4;11 cells, read-out: Cellular proliferation assay (IC50, nM) RS4
Summary of the method: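 RS4;11 cells, 50,000 per well in RPMI-1640 with 10% FBS, treated 48 h at 37 °C with a 10-point dilution series topping at 1 μM. Viability read by CellTiter-Glo ATP luminescence; mean IC50 reported.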

[5] = system: BCL-2 G101V knock-in cell line H96 (derive from RS4;11); assay: Bcl 2-G101V Knock-In RS4;11 Cell Proliferation Assay; type: cell-based; settings: Homo sapiens, RS4;11 Bcl-2 G101V knock-in clone H96, 48 hrs, CellTiter-GLO, read-out: Cellular proliferation assay (IC50, nM) RS4
Summary of the method: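 H96, a CRISPR-generated RS4;11 clone carrying BCL2-G101V knock-in (WES/RNA-seq validated), seeded 50,000 per well and exposed 48 h at 37 °C to 10-point dilutions topping at 1 or 10 μM. Viability by CellTiter-Glo luminescence; mean IC50.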

SMILES	IC50 [1] [nM]	IC50 [2] [nM]	Ratio of Bcl-2 G101V/WT [3]	IC50 [4] [nM]	IC50 [5] [nM]
COc1cccc(CN2CCN(C3CC4(CCN(c5ccc(C(=O)NS(=O)(=O)c6ccc(NC[C@H]7CC[C@](C)(O)CC7)c([N+](=O)[O-])c6)c(Oc6cnc7[nH]ccc7c6)c5)CC4)C3)C(c3ccccc3C(C)C)C2)c1Cl (stereo partly drawn) [Example 120, 2-((1H-pyrrolo[2,3-b]pyridin-5-yl)oxy)-4-(2-(4-(2-chloro-3-methoxybenzyl)-2-(2-isopropylphenyl)piperazin-1-yl)-7-azaspiro[3.5]nonan-7-yl)-N-((4-((((1r,4r)-4-hydroxy-4-methylcyclohexyl)methyl)amino)-3-nitrophenyl)sulfonyl)benzamide]	0.42	3.4	8	1.25	12.7
COc1ccc(CN2CCN(C3CC4(CCN(c5ccc(C(=O)NS(=O)(=O)c6ccc(NCC7CCOCC7)c([N+](=O)[O-])c6)c(Oc6cnc7[nH]ccc7c6)c5)CC4)C3)[C@H](c3ccccc3C(C)C)C2)cc1 (single isomer, unassigned) [Example 69, (R or S)-2-((1H-pyrrolo[2,3-b]pyridin-5-yl)oxy)-4-(2-(2-(2-isopropylphenyl)-4-(4-methoxybenzyl)piperazin-1-yl)-7-azaspiro[3.5]nonan-7-yl)-N-((3-nitro-4-(((tetrahydro-2H-pyran-4-yl)methyl)amino)phenyl)sulfonyl) benzamide]	0.041	0.37	8.9	0.47	2
COc1cc(CN2CCN(C3CC4(CCN(c5ccc(C(=O)NS(=O)(=O)c6ccc(NC[C@H]7CC[C@](C)(O)CC7)c([N+](=O)[O-])c6)c(Oc6cnc7[nH]cc(Cl)c7c6)c5)CC4)C3)[C@H](c3ccccc3C(C)C)C2)ccc1C1CC1 [Example 252, 2-((3-chloro-1H-pyrrolo[2,3-b]pyridin-5-yl)oxy)-4-(2-((R)-4-(4-cyclopropyl-3-methoxybenzyl)-2-(2-isopropylphenyl)piperazin-1-yl)-7-azaspiro[3.5]nonan-7-yl)-N-((4-((((1r,4r)-4-hydroxy-4-methylcyclohexyl)methyl)amino)-3-nitrophenyl)sulfonyl)benzamide]	1.2	3.5	2.8	0.26	2.6
COc1ccc(CN2CCN(C3CC4(CCN(c5ccc(C(=O)NS(=O)(=O)c6ccc(NC[C@H]7CC[C@](C)(O)CC7)c([N+](=O)[O-])c6)c(Oc6cnc7[nH]ccc7c6)c5)CC4)C3)C(c3ccccc3C(C)C)C2)cc1OC(F)F (stereo partly drawn) [Example 169, 2-((1H-pyrrolo[2,3-b]pyridin-5-yl)oxy)-4-(2-(4-(3-(difluoromethoxy)-4-methoxybenzyl)-2-(2-isopropylphenyl)piperazin-1-yl)-7-azaspiro[3.5]nonan-7-yl)-N-((4-((((1r,4r)-4-hydroxy-4-methylcyclohexyl)methyl)amino)-3-nitrophenyl)sulfonyl)benzamide]	0.62	2.4	3.9	0.49	1.5
COc1ccc(CN2CCN(C3CC4(CCN(c5ccc(C(=O)NS(=O)(=O)c6ccc(NC[C@H]7CC[C@](C)(O)CC7)c([N+](=O)[O-])c6)c(Oc6cnc7[nH]ccc7c6)c5)CC4)C3)C(c3ccccc3C(C)C)C2)cc1Br (stereo partly drawn) [Example 143, 2-((1H-pyrrolo[2,3-b]pyridin-5-yl)oxy)-4-(2-(4-(3-bromo-4-methoxybenzyl)-2-(2-isopropylphenyl)piperazin-1-yl)-7-azaspiro[3.5]nonan-7-yl)-N-((4-((((1r,4r)-4-hydroxy-4-methylcyclohexyl)methyl)amino)-3-nitrophenyl)sulfonyl)benzamide]	0.48	2.6	5.5	0.674	5.15
CC(C)c1ccccc1[C@@H]1CN(Cc2cnn(C)c2)CCN1C1CC2(CCN(c3ccc(C(=O)NS(=O)(=O)c4ccc(NC[C@H]5CC[C@](C)(O)CC5)c([N+](=O)[O-])c4)c(Oc4cnc5[nH]ccc5c4)c3)CC2)C1 (single isomer, unassigned) [Example 22b, 2-((1H-pyrrolo[2,3-b]pyridin-5-yl)oxy)-N-((4-((((1r,4r)-4-hydroxy-4-methylcyclohexyl)methyl)amino)-3-nitrophenyl)sulfonyl)-4-(2-((S or R)-2-(2-isopropylphenyl)-4-((1-methyl-1H-pyrazol-4-yl)methyl)piperazin-1-yl)-7-azaspiro[3.5]nonan-7-yl)benzamide]	0.038	1.9	50.0	7.6	57.3
COc1cc(CN2CCN(C3CC4(C3)CN(c3ccc(C(=O)NS(=O)(=O)c5ccc(NC[C@H]6CC[C@](C)(O)CC6)c([N+](=O)[O-])c5)c(Oc5cnc6[nH]cc(F)c6c5)c3)C4)[C@H](c3ccccc3C(C)C)C2)cc2c1OCCCO2 [Example 335, 2-((3-fluoro-1H-pyrrolo[2,3-b]pyridin-5-yl)oxy)-N-((4-((((1r,4r)-4-hydroxy-4-methylcyclohexyl)methyl)amino)-3-nitrophenyl)sulfonyl)-4-(6-((R)-2-(2-isopropylphenyl)-4-((9-methoxy-3,4-dihydro-2H-benzo[b][1,4]dioxepin-7-yl)methyl)piperazin-1-yl)-2-azaspiro[3.3]heptan-2-yl) benzamide]	0.06	0.15	2.6	0.17	0.34
COc1ccc(OC2CCN(C3CC4(CCN(c5ccc(C(=O)NS(=O)(=O)c6ccc(NC[C@H]7CC[C@](C)(O)CC7)c([N+](=O)[O-])c6)c(Oc6cnc7[nH]ccc7c6)c5)CC4)C3)C(c3ccccc3C(C)C)C2)cc1 (stereo partly drawn) [Example 138, 2-((1H-pyrrolo[2,3-b]pyridin-5-yl)oxy)-N-((4-((((1r,4r)-4-hydroxy-4-methylcyclohexyl)methyl)amino)-3-nitrophenyl)sulfonyl)-4-(2-(2-(2-isopropylphenyl)-4-(4-methoxyphenoxy)piperidin-1-yl)-7-azaspiro[3.5]nonan-7-yl) benzamide]	0.36	1.5	4.1	0.44	3
COc1ccc(CN2CCN(C3CC4(CCN(c5ccc(C(=O)NS(=O)(=O)c6ccc(NCC7CCOCC7)c([N+](=O)[O-])c6)c(Oc6cnc7[nH]ccc7c6)c5)CC4)C3)C(c3ccccc3C)C2)cc1 (stereo not drawn) [Example 38]	0.053	4.1	77.4	2.5	37.5
COc1ccc(CN2CCN(C3CC4(C3)CN(c3ccc(C(=O)NS(=O)(=O)c5ccc(NC[C@H]6CC[C@](C)(O)CC6)c([N+](=O)[O-])c5)c(Oc5cnc6[nH]cc(F)c6c5)c3)C4)[C@@H](c3ccccc3C(C)C)C2)cc1OC [Example 141b, 4-(6-((S)-4-(3,4-dimethoxybenzyl)-2-(2-isopropylphenyl)piperazin-1-yl)-2-azaspiro[3.3]heptan-2-yl)-2-((3-fluoro-1H-pyrrolo[2,3-b]pyridin-5-yl)oxy)-N-((4-((((1r,4r)-4-hydroxy-4-methylcyclohexyl)methyl)amino)-3-nitrophenyl)sulfonyl)benzamide]	0.059	2.3	40	0.659	4.09
[2H]C([2H])([2H])Oc1ccc(CN2CCN(C3CC4(CCN(c5ccc(C(=O)NS(=O)(=O)c6ccc(NC[C@H]7CC[C@](C)(O)CC7)c([N+](=O)[O-])c6)c(Oc6cnc7[nH]ccc7c6)c5)CC4)C3)[C@H](c3ccccc3C(C)C)C2)cc1OC([2H])([2H])[2H] [Example 253, 2-((1H-pyrrolo[2,3-b]pyridin-5-yl)oxy)-4-(2-((R)-4-(3,4-bis(methoxy-d3)benzyl)-2-(2-isopropylphenyl)piperazin-1-yl)-7-azaspiro[3.5]nonan-7-yl)-N-((4-((((1r,4r)-4-hydroxy-4-methylcyclohexyl)methyl)amino)-3-nitrophenyl)sulfonyl)benzamide]	0.027	0.089	3.3	0.11	0.29
CC(C)c1ccccc1[C@@H]1CN(Cc2ccc(N3CCOCC3)cc2)CCN1C1CC2(C1)CN(c1ccc(C(=O)NS(=O)(=O)c3ccc(NC[C@H]4CC[C@](C)(O)CC4)c([N+](=O)[O-])c3)c(Oc3cnc4[nH]cc(F)c4c3)c1)C2 [Example 368]	0.064	0.29	4.5	0.096	0.24

From US20240376097A1, “BCL-2 Inhibitor” (BeiGene Ltd., priority 2020, published 2024)
